Measurements reported in patent publication US20230346777A1, “USE OF SGC ACTIVATORS FOR THE TREATMENT OF OPHTHALMOLOGIC DISEASES” (Bayer Aktiengesellschaft, priority 2020, published 2023).
Entries after “also recorded” stand apart in the source; their conditions may differ. Where a name gives a salt, the structure may show the parent alone.

Legend:
[1] = molecular target: T1, recombinant guanylate cyclase reporter cell line (Rattus norvegicus, UniProt P20595); test: Effect on a recombinant guanylate cyclase reporter cell line; assay type: cell-based
T1 construct: expressed in transfected cells; CHO by own knowledge of the cited Wunder et al. 2005
T1 sequence (P20595 1-619): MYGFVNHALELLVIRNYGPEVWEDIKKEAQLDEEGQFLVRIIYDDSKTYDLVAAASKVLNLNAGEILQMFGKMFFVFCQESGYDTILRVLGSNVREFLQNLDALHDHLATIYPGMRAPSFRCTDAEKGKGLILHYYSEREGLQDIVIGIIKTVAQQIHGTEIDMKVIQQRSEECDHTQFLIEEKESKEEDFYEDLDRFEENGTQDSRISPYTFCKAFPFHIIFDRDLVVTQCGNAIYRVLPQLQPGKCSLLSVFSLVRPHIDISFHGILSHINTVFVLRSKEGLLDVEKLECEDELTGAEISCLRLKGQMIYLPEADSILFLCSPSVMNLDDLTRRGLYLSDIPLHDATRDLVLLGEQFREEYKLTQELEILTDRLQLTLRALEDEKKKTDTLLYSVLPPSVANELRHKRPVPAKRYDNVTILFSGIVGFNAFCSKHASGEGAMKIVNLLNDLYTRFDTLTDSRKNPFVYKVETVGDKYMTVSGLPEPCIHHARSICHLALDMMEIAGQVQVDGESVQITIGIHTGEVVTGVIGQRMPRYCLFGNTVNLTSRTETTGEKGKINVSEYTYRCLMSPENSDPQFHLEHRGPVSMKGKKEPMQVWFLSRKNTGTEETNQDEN
T1 sequence (P19686 1-690 partner): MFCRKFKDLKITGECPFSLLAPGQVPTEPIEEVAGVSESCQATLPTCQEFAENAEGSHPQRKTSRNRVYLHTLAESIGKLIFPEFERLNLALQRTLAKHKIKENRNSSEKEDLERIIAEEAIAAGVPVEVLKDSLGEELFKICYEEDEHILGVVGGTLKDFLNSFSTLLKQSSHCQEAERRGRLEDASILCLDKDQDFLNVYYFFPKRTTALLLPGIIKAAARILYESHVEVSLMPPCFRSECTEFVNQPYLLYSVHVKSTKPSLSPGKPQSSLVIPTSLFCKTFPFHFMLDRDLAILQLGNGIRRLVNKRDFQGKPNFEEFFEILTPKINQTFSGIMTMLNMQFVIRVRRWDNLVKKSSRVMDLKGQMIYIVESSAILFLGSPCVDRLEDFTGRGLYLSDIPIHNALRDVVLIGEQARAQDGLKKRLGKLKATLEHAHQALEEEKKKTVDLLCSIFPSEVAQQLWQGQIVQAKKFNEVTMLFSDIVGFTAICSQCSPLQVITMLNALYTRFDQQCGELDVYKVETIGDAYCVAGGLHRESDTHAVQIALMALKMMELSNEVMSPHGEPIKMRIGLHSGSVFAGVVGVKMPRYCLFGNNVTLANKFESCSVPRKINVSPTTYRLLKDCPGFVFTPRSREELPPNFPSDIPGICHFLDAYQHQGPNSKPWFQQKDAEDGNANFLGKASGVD
Experimental: B-1. Effect on a Recombinant Guanylate Cyclase Reporter Cell Line
The cellular activity of the compounds according to the invention was determined using a recombinant guanylate cyclase reporter cell line, as described in F. Wunder et al., Anal. Biochem. 339, 104-112 (2005).

[2] = system: retinal ischemia reperfusion (I/R) in rat; test: Sub-chronic changes in rat retinal structure after retinal ischemia reperfusion (I/R), therapeutic and prophylactic settings; assay type: in vivo, male Wistar Unilever rats; settings: for IPL (inner plexiform layer) thickness: H&E sections
Text: B-8 Evaluation of Sub-Chronic Changes in Rat Retinal Structure after Retinal Ischemia Reperfusion (I/R) Therapeutic and Prophylactic Settings
Six male Wistar Unilever rats were used per experimental group. On induction day, rats were anesthetized with an intraperitoneal injection of Rompun® and Ketavet® before the pupils of the right eyes were dilated with Alcain eye drops and in addition treated with Vigamox® eye drops. The left eye is covered with Bepanthen® eye cream. Under deep anesthesia, the retina and the optic nerve were examined by optical coherence tomography (OCT) as a baseline measurement. The induction was done as the anterior chamber was punctured with a 30 G needle. Through a tube, 0.9% NaCl solution was pumped into the anterior chamber with a pressure 120 mm Hg. The pressure is regulated with a blood pressure cuff. The intraocular pressure (IOP) was elevated for 45 min. The procedure was successful as the eyeballs discolored because of vascular obstruction. After 45 min, the needle was removed, eye cream was put on the right eye and the animal could wake up. Compound (e.g. example 3, formula I-E-R) or its vehicle were orally applied, once daily (QD). The application volume was 5 mL/kg. In prophylactic setting, animals started the treatment 2 days before induction and received an intravenous (IV) bolus of compound (e.g. example 3, formula I-E-R) (i.v. 3 mg/kg in rat plasma) 15 minutes before induction. Treatment continued then after for 21 days. In the therapeutic setting, animals received an intravenous (IV) bolus of compound (e.g. example 3, formula I-E-R) (i.v. 3 mg/kg in rat plasma) 15 minutes after induction. Treatment continued then after for 21 days; once daily (3 mg/kg, PO QD). At day 7 and day 21, the retina and the optic nerve were examined by optical coherence tomography (OCT). The retinal function was evaluated by the ERG (Electroretinography) at day 7 and day 21 post induction according to the method disclosed in McCulloch et al., 2015. Functional read-out of retinal electrical signal in response to light stimulation “b-wave amplitude (μv)” represents inner retinal function. Then the eyes were collected for histopathology and preserved in Davidson's solution. The eye sections were stained with hematoxylin and eosin staining. The total retinal thickness and the inner plexiform layer thickness was measured at 1000 μm distances from the optic nerve using (Microscope Software ZEN, Zeiss, Germany).
Neuroprotection: The inner plexiform layer (IPL) functions as a relay station for the vertical-information-carrying nerve cells, the bipolar cells, to connect the photoreceptor cells to the ganglion cells. The IPL layer thickness was measured in histological sections stained with (H&E).

CC(C)CN1CCN(c2ccc(-c3ccc(Cl)cc3N3CCC[C@@H](n4ncc(C(=O)O)c4C(F)F)C3)cc2)CC1 [Example 3, 1-{1-[4-Chloro-4′-(4-isobutylpiperazin-1-yl)[biphenyl]-2-yl]piperidin-3-yl}-5-(difluoromethyl)-1H-pyrazole-4-carboxylic acid hydrochloride]
EC50 [1]: 2.7 nM | MEC (minimum effective concentration) ([1]; hydrochloride): 0.6 nM | retinal structure and photoreceptors integrity (histology) ([2]; I/R rats vs IR only): the retinal structure was preserved, and the photoreceptors integrity was intact | retinal thickness (histology) ([2]; I/R rats, 3 mg/kg PO QD for 21 days plus i.v. 3 mg/kg bolus, at 3 weeks vs IR only): significantly higher retinal thickness compared to IR only animals | retinal structure / mean total retinal thickness by optical coherence tomography (OCT) ([2]; I/R rats, 1- and 3-weeks post induction vs IR only): protect retinal structure | retinal function measured by ERG (b wave amplitude) ([2]; I/R rats, one week and 3 weeks post induction vs IR, hydrochloride): significant difference in retinal function; also recorded: reduces ischemia induced retinal dysfunction | IPL (inner plexiform layer) thickness ([2]; I/R rats, prophylactic setting (FIG. 4A)): preserved | IPL (inner plexiform layer) thickness ([2]; I/R rats, therapeutic setting (FIG. 4B)): preserved
